In patent publication US6093732A, “4-hydroxyquinoline-3-carboxamides and hydrazides as antiviral agents” (Pharmacia & Upjohn Company, priority 1998, dated 2000):

Target: T1, HCMV polymerase (Human cytomegalovirus, UniProt P08546)
T1 construct: made in house; host or cells: recombinant baculovirus-infected SF-9 cells
Experiment: HCMV polymerase scintillation proximity assay (SPA), modified version
Type: biochemical
Settings: Antiviral Selective Polymerase IC50 Values, CMV, Table 1, modified assay with 4.5 mM DTT, compounds in 100% DMSO
In short: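 SPA measuring 3H-dTTP (90 nM) incorporation on 6 nM biotinylated poly(dA)-oligo(dT) by SF-9-expressed enzyme, pH 7.5 HEPES/KCl/MgCl2/BSA buffer with or without 2 mM CHAPS. Run at 25° C or 37° C, stopped with EDTA while linear (HCMV 30 min); IC50 from linear regression. Modified format adds 4.5 mM DTT, compounds diluted in 100% DMSO.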

T1 sequence (P08546 whole entry): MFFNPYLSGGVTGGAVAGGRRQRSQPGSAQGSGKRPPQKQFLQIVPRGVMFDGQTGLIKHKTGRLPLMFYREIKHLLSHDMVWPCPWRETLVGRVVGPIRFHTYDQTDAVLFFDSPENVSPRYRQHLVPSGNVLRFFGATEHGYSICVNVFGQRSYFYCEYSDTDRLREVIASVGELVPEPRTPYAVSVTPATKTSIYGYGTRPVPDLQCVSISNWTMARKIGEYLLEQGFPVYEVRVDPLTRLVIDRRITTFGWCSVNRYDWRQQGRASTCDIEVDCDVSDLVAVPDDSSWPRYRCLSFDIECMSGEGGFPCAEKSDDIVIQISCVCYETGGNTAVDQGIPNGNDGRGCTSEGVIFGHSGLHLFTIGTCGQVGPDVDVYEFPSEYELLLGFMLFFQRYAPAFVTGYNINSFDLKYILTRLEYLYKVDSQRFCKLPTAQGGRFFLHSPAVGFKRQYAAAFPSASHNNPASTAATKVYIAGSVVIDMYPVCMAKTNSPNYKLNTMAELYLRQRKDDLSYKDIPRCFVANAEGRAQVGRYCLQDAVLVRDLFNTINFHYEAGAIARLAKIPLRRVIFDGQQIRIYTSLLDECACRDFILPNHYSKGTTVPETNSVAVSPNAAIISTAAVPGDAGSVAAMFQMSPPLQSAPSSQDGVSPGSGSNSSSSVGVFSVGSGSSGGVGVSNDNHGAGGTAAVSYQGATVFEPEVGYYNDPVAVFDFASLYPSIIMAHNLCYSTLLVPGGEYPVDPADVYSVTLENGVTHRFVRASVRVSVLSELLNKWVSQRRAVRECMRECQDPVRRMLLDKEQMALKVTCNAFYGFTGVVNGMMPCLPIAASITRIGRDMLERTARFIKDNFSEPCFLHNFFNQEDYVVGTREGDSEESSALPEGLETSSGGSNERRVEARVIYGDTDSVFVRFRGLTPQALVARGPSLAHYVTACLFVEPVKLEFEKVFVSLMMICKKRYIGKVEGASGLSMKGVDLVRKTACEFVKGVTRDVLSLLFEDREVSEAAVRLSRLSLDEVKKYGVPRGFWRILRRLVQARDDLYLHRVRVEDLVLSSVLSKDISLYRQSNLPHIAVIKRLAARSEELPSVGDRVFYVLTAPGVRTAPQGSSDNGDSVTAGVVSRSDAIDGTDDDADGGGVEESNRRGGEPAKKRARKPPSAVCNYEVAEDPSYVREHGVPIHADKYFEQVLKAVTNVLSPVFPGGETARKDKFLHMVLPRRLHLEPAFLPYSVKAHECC

For `O=C(NCc1ccc(Cl)cc1)c1cnc2c(F)cc(S(=O)(=O)NCCBr)cc2c1O` [Example 244, 6-{[(2-bromoethyl)amino]sulfonyl}-N-(4-chlorobenzyl)-8-fluoro-4-hydroxy-3-quinolinecarboxamide], which IC50 is on record?
Its IC50 is 19 µM.

Same assay, conditions: CMV polymerase; Table 1; modified assay with 4.5 mM DTT, compounds in 100% DMSO; read-out: Antiviral Selective Polymerase IC50 Values, CMV

How did the IC50 turn out when `NNC(=S)c1cc(F)c2ncc(C(=O)NCc3ccc(Cl)cc3)c(O)c2c1` [Example 98, N-(4-Chlorobenzyl)-8-fluoro-6-(hydrazinocarbothioyl)-4-hydroxy-3-quinolinecarboxamide] was run?
The IC50 was 1.3 µM.

`O=C(NCc1ccc(Cl)cc1)c1cnc2cc(C(F)(F)F)c(SCc3ccccc3)cc2c1O` [Example 72, N-[(4-Chlorophenyl)methyl]-4-hydroxy-6-[(phenylmethyl)thio]-7-(trifluoromethyl)-3-quinolinecarboxamide] was tested. Which IC50 did it give?
The IC50 was 9.4 µM.

With `O=C(NCc1ccc(Cl)cc1)c1cnc2c(F)cc(-c3cc(Br)cs3)cc2c1O` [Example 97, 6-(4-Bromo-2-thienyl)-N-(4-chlorobenzyl)-8-fluoro-4-hydroxy-3-quinolinecarboxamide] as the molecule, how does the IC50 read?
Its IC50 is 18.6 µM.

How did the IC50 turn out when `CC(=O)/C=C/c1cc(F)c2ncc(C(=O)NCc3ccc(Cl)cc3)c(O)c2c1` [Example 153, N-(4-Chlorobenzyl)-8-fluoro-4-hydroxy-6-[(E)-3-oxo-1-butenyl]-3-quinolinecarboxamide] was run?
The IC50 was 8.3 µM.

`O=C(NCc1ccc(Cl)cc1)c1cnc2ccc3[nH]ncc3c2c1O` [Example 116] was tested. Which IC50 did it give?
Its IC50 is 16.5 µM.

How did the IC50 turn out when `O=C(NCc1ccc(Cl)cc1)c1cnc2c(F)cc(S(=O)(=O)NCCc3ccccc3)cc2c1O` [Example 230, N-(4-chlorobenzyl)-8-fluoro-4-hydroxy-6-[(phenethylamino)sulfonyl]-3-quinolinecarboxamide] was run?
Its IC50 is 9.6 µM.

Which IC50 does the source give for `O=C(CN1CCOCC1)OCCCc1cc(F)c2ncc(C(=O)NCc3ccc(Cl)cc3)c(O)c2c1` [Example 147, 3-(3-([(4-Chlorobenzyl)amino]carbonyl}-8-fluoro-4-hydroxy-6-quinolinyl)propyl 2-morpholinoacetate] here?
Its IC50 is 7 µM.

For `COc1cc(OC)c2ncc(C(=O)NCc3ccc(Cl)cc3)c(O)c2c1` [Example 60, N-((4-Chlorophenyl)methyl)-4-hydroxy-6,8-dimethoxy-3-quinolinecarboxamide], which IC50 is on record?
Its IC50 is 4 µM.

Which IC50 does the source give for `O=C(NCc1ccc(Cl)cc1)c1cnc2c(F)cc(S(=O)(=O)NCc3ccco3)cc2c1O` [Example 204, N-(4-chlorobenzyl)-8-fluoro-6-{[(2-furylmethyl)amino]sulfonyl}-4-hydroxy-3-quinolinecarboxamide] here?
Its IC50 is 13.8 µM.

How did the IC50 turn out when `O=C(NCc1ccc(Cl)cc1)c1cnc2ccc(NCCO)cc2c1O` [Example 188, N-(4-Chlorobenzyl)-4-hydroxy-6-[(2-hydroxyethyl)amino]-3-quinolinecarboxamide] was run?
The IC50 was 2.1 µM.

Which IC50 does the source give for `O=C(NCc1ccc(Cl)cc1)c1c[nH]c2ccc(/C=C\CO)cc2c1=O` [Example 135, N-[(4-Chlorophenyl)methyl]-1,4-dihydro-6-[(1Z)-3-hydroxy-1-propenyl]-4-oxo-3-quinolinecarboxamide] here?
The IC50 was 0.78 µM.

How did the IC50 turn out when `O=C(NCc1ccc(Cl)cc1)c1cnc2c(F)cc(S(=O)(=O)NCc3cccnc3)cc2c1O` [Example 218, N-(4-chlorobenzyl)-8-fluoro-4-hydroxy-6-{[(3-pyridinylmethyl)amino]sulfonyl}-3-quinolinecarboxamide] was run?
Its IC50 is 17.6 µM.

With `NC(=O)CNS(=O)(=O)c1cc(F)c2ncc(C(=O)NCc3ccc(Cl)cc3)c(O)c2c1` [Example 265, 6-{[(2-amino-2-oxoethyl)amino]sulfonyl}-N-(4-chlorobenzyl)-8-fluoro-4-hydroxy-3-quinolinecarboxamide] as the molecule, how does the IC50 read?
The IC50 was 11.4 µM.

With `O=C(NCc1ccc(Cl)cc1)c1cnc2c(F)cc(S(=O)(=O)NCC3CC3)cc2c1O` [Example 253, N-(4-chlorobenzyl)-6-{[(cyclopropylmethyl)amino]sulfonyl}-8-fluoro-4-hydroxy-3-quinolinecarboxamide] as the molecule, how does the IC50 read?
The IC50 was 20.6 µM.

For `CCOC(=O)/C=C/c1cc(F)c2ncc(C(=O)NCc3ccc(Cl)cc3)c(O)c2c1` [Example 112, Ethyl (E)-3-(3-{[(4-chlorobenzyl)amino]carbonyl}-8-fluoro-4-hydroxy-6-quinolinyl)-2-propenoate], which IC50 is on record?
Its IC50 is 14 µM.

For `O=C(NCc1ccc(Cl)cc1)c1cnc2c(F)cc(S(=O)(=O)NCCc3cccs3)cc2c1O` [Example 255, N-(4-chlorobenzyl)-8-fluoro-4-hydroxy-6-({[2-(2-thienyl)ethyl]amino}sulfonyl)-3-quinolinecarboxamide], which IC50 is on record?
Its IC50 is 12.1 µM.

For `O=C(NCc1ccc(Cl)cc1)c1cc(F)c2ncc(C(=O)NCc3ccc(Cl)cc3)c(O)c2c1` [Example 185, N^3,N^6 -Bis(4-chlorobenzyl)-8-fluoro-4-hydroxy-3,6-quinolinedicarboxamide], which IC50 is on record?
The IC50 was 32.8 µM.

For `CSC/C=C\c1cc(F)c2ncc(C(=O)NCc3ccc(Cl)cc3)c(O)c2c1` [Example 128, N-[(4-Chlorophenyl)methyl]-8-fluoro-4-hydroxy-6-[(1Z)-3-(methylthio)-1-propenyl]-3-quinolinecarboxamide], which IC50 is on record?
Its IC50 is 0.46 µM.

How did the IC50 turn out when `NS(=O)(=O)c1ccc(CNS(=O)(=O)c2cc(F)c3ncc(C(=O)NCc4ccc(Cl)cc4)c(O)c3c2)cc1` [Example 249, 6-({[4-(aminosulfonyl)benzyl]amino}sulfonyl)-N-(4-chlorobenzyl)-8-fluoro-4-hydroxy-3-quinolinecarboxamide] was run?
Its IC50 is 7.6 µM.

How did the IC50 turn out when `COc1c(F)cc2c(O)c(C(=O)NCc3ccc(Cl)cc3)cnc2c1OC` [Example 80, N-((4-Chlorophenyl)methyl)-7,8-dimethoxy-6-fluoro-4-hydroxy-3-quinolinecarboxamide] was run?
The IC50 was 2.4 µM.

How did the IC50 turn out when `CSCC#Cc1cc(F)c2ncc(C(=O)NCc3ccc(Cl)cc3)c(O)c2c1` [Example 126, N-[(4-Chlorophenyl)methyl]-8-fluoro-4-hydroxy-6-[3-(methylthio)-1-propynyl]-3-quinolinecarboxamide] was run?
The IC50 was 19.7 µM.

How did the IC50 turn out when `O=C(NCc1ccc(Cl)cc1)c1cnc2cc3c(cc2c1O)CCC3` [Example 64, N-[(4-Chlorophenyl)methyl]-7,8-dihydro-4-hydroxy-6H-cyclopent a[g]quinoline-3-carboxamide] was run?
The IC50 was 8.5 µM.

For `O=C(NCc1ccc(Cl)cc1)c1cnc2c(F)cc(S(=O)(=O)NCCc3ccc(Cl)cc3)cc2c1O` [Example 231, N-(4-chlorobenzyl)-6-{[(4-chlorophenethyl)amino]sulfonyl}-8-fluoro-4-hydroxy-3-quinolinecarboxamide], which IC50 is on record?
Its IC50 is 8.3 µM.

For `Nc1ccc(CNS(=O)(=O)c2cc(F)c3ncc(C(=O)NCc4ccc(Cl)cc4)c(O)c3c2)cc1` [Example 266, 6-{[(4-aminobenzyl)amino]sulfonyl}-N-(4-chlorobenzyl)-8-fluoro-4-hydroxy-3-quinolinecarboxamide], which IC50 is on record?
Its IC50 is 10.1 µM.

With `NC(=S)c1cc(F)c2ncc(C(=O)NCc3ccc(Cl)cc3)c(O)c2c1` [Example 52, 6-(Aminothioxomethyl)-N-[(4-chlorophenyl)methyl]-8-fluoro-4-hydroxy-3-quinolinecarboxamide] as the molecule, how does the IC50 read?
The IC50 was 11 µM.

`COc1cccc2c(O)c(C(=O)NCc3ccc(Cl)cc3)cnc12` [Example 20, N-[(4-Chlorophenyl)methyl]-4-hydroxy-8-methoxy-3-quinoline-carboxamide] was tested. Which IC50 did it give?
Its IC50 is 6.5 µM.

For `O=C(NCc1ccc(Cl)cc1)c1cnc2c(F)cc(C#Cc3ccccn3)cc2c1O` [Example 92, N-(4-Chlorobenzyl)-8-fluoro-4-hydroxy-6-[2-(2-pyridinyl)ethynyl]-3-quinolinecarboxamide], which IC50 is on record?
The IC50 was 20.6 µM.

With `O=C(NCc1ccc(Cl)cc1)c1cnc2ccc(O)cc2c1O` [Example 44, N-[(4-Chlorophenyl)methyl]-4,6-dihydroxy-3-quinoline-carboxamide] as the molecule, how does the IC50 read?
The IC50 was 28.7 µM.

`CSCCCc1cc(F)c2ncc(C(=O)NCc3ccc(Cl)cc3)c(O)c2c1` [Example 130, N-[(4-Chlorophenyl)methyl]-8-fluoro-4-hydroxy-6-[3-(methylthio)propyl]-3-quinolinecarboxamide] was tested. Which IC50 did it give?
The IC50 was 1.1 µM.

`O=C(NCc1ccc(Cl)cc1)c1cnc2c(F)cc(/C=C\CO)cc2c1O` [Example 137, N-(4-Chlorobenzyl)-8-fluoro-4-hydroxy-6-[(Z)-3-hydroxy-1-propenyl]-3-quinolinecarboxamide] was tested. Which IC50 did it give?
The IC50 was 0.6 µM.

Which IC50 does the source give for `O=C(NCc1ccc(Cl)cc1)c1cnc2c(F)cc(Br)cc2c1O` [Example 4] here?
The IC50 was 3.4 µM.

How did the IC50 turn out when `N#CCNS(=O)(=O)c1cc(F)c2ncc(C(=O)NCc3ccc(Cl)cc3)c(O)c2c1` [Example 240, N-(4-chlorobenzyl)-6-{[(cyanomethyl)amino]sulfonyl}-8-fluoro-4-hydroxy-3-quinolinecarboxamide] was run?
Its IC50 is 11.4 µM.

`Cc1cccc2ncc(C(=O)NCc3ccc(Cl)cc3)c(O)c12` [Example 62, N-((4-Chlorophenyl)methyl)-4-hydroxy-5-methyl-3-quinoline-carboxamide] was tested. Which IC50 did it give?
The IC50 was 4.6 µM.

Which IC50 does the source give for `CC(C)(C)OC(=O)CCNS(=O)(=O)c1cc(F)c2ncc(C(=O)NCc3ccc(Cl)cc3)c(O)c2c1` [Example 258, tert-butyl 3-{[(3-{[(4-chlorobenzyl)amino]carbonyl}-8-fluoro-4-hydroxy-6-quinolinyl)sulfonyl]amino}propanoate] here?
The IC50 was 15.2 µM.

`CC(O)C#Cc1ccc2ncc(C(=O)NCc3ccc(Cl)cc3)c(O)c2c1` (centres unmarked) [Example 152, N-(4-Chlorobenzyl)-4-hydroxy-6-(3-hydroxy-1-butynyl)-3-quinolinecarboxamide] was tested. Which IC50 did it give?
Its IC50 is 5.4 µM.

With `O=C(NCc1ccc(Cl)cc1)c1cnc2c(F)cc(S(=O)(=O)NCC3CCCCC3)cc2c1O` [Example 201, N-(4-chlorobenzyl)-6-{[(cyclohexylmethyl)amino]sulfonyl}-8-fluoro-4-hydroxy-3-quinolinecarboxamide] as the molecule, how does the IC50 read?
The IC50 was 6 µM.

For `O=C(NCc1ccc(Cl)cc1)c1cnc2c(F)cc(S(=O)(=O)NCCc3c[nH]c4ccccc34)cc2c1O` [Example 193, N-(4-Chlorobenzyl)-8-fluoro-4-hydroxy-6-({[2-(1H-indol-3-yl)ethyl]-amino)sulfonyl)-3-quinolinecarboxamide], which IC50 is on record?
The IC50 was 2.7 µM.
